# Assay results from patent US20090143361A1, “Pyrido[3,2-E]Pyrazines, Process For Preparing The Same, And Their Use As Inhibitors Of Phosphodiesterase 10” (ELBION GMBH, priority 2007, published 2009).
# Target: PDE10 from pig striatum (Sus scrofa, UniProt A0A287B941)
# Test: Inhibition of PDE10 from pig striatum ([3H]-cAMP SPA)
# Type: biochemical
# Conditions: Table 7; read-out: PDE10 pig IC50
# Description: Phosphodiesterase isoenzyme 10 (PDE10) activity was determined in preparations of human recombinant PDE10A and PDE10 from pig striatum, respectively.
# Striatum from male hybrid pigs (150 kg) were collected and frozen at −70° C.
# At the day of preparation 0.5 g striatum was homogenised in 10 ml 50 mM Tris/Mg-buffer at 4° C. and centrifuged for one hour at 100000 g. The supernatant was removed and the pellet was resuspended in the same buffer, but containing 1% Triton and incubated for 45 min at 4° C. The membrane fraction was applied onto a 5 ml Hi Trap™ QHP column at the Akta-FPLC. After washing the column the bound PDE protein was eluted with an increasing sodium chloride gradient (O mM-500 mM sodium chloride) in 50 mM Tris/Mg-buffer at 4° C. in the presence of 1% Triton. […] The fractions with PDE10-activity were pooled and frozen in aliquots until use at −20° C.
# (§1) PDE10 activity was determined in a one step procedure in microtiterplates. […] Nonspecific activity was tested without the enzyme. The reaction was initiated by addition of the substrate solution and was carried out at 37° C. for 30 minutes. Enzymatic activity was stopped by addition of 25 μl YSi-SPA-beads (Amersham-Pharmacia). One hour later the mixture was measured in a liquid scintillation counter for microtiterplates (Microbeta Trilux). To pipette the incubation mixture a robot Biomek (Fa. Beckman) is used. […] For determination of IC50 values the Hill-plot, 2-parameter-model, was used.
# The phosphodiesterase isoenzyme 10 (PDE10) activity was determined in preparations of rat, pig and guinea pig striatum respectively. Striatum from male Wistar rats (180-200 g), male hybrid pigs (150 kg) and male guinea pigs (CRL (HA), 500 g) respectively were collected and frozen at −70° C.
# At the day of preparation 0.5 g striatum was homogenized in 10 ml 50 mM Tris/Mg-buffer at 4° C. and centrifuged for one hour at 100000 g. The supernatant is called the cytosolic fraction and was removed and stored on ice. The pellet was resuspended in the same buffer, but containing 1% Triton and incubated for 45 min at 4° C. Both fractions were independently applied onto a 5 ml Hi Trap™ QHP column at the Akta-FPLC. After washing the columns the bound PDE protein was eluted with an increasing sodium chloride gradient (0 mM-500 mM sodium chloride) in 50 mM Tris/Mg-buffer at 4° C. for the cytosolic fraction and in the presence of 1% Triton for the membrane fraction. […] The fractions with PDE10-activity were pooled and frozen in aliquots until use at −20° C.
# as §1, with “YSi-SPA beads” for “YSi-SPA-beads”
row,IC50,Structure (SMILES)
1,10 to 100 nM,"COc1ccc2nc(C)c3c(C)nc(-c4cccc(F)c4)n3c2n1 [Example 5, 9-(3-Fluorophenyl)-2-methoxy-6,7-dimethylimidazo[1,5-a]pyrido[3,2-e]pyrazine]"
2,10 to 100 nM,"COc1ccc2nc(C)c3c(C)nc(-c4ccc(F)cc4F)n3c2n1 [Example 8, 9-(2,4-Difluorophenyl)-2-methoxy-6,7-dimethylimidazo[1,5-a]pyrido[3,2-e]pyrazine]"
3,10 to 100 nM,"COc1ccc2nc(C)c3c(C)nc(-c4ccc(F)nc4)n3c2n1 [Example 9, 9-(6-Fluoropyridin-3-yl)-2-methoxy-6,7-dimethylimidazo[1,5-a]pyrido[3,2-e]pyrazine]"
4,< 10 nM,"COc1ccc2nc(C)c3c(C)nc(-c4ccc(C)cc4Cl)n3c2n1 [Example 12, 9-(2-Chloro-4-methylphenyl)-2-methoxy-6,7-dimethylimidazo[1,5-a]pyrido[3,2-e]pyrazine]"
5,< 10 nM,"COc1ccc2nc(C)c3c(C)nc(-c4ccc(Cl)cc4C)n3c2n1 [Example 13, 9-(4-Chloro-2-methylphenyl)-2-methoxy-6,7-dimethylimidazo[1,5-a]pyrido[3,2-e]pyrazine]"
6,< 10 nM,"COc1ccc2nc(C)c3c(C)nc(-c4ccc(C)cc4F)n3c2n1 [Example 14, 9-(2-Fluoro-4-methylphenyl)-2-methoxy-6,7-dimethylimidazo[1,5-a]pyrido[3,2-e]pyrazine]"
7,10 to 100 nM,"COc1ccc2nc(C)c3c(C)nc(-c4cccc(OC)c4F)n3c2n1 [Example 15, 9-(2-Fluoro-3-methoxyphenyl)-2-methoxy-6,7-dimethylimidazo[1,5-a]pyrido[3,2-e]pyrazine]"
8,< 10 nM,"COc1ccc(-c2nc(C)c3c(C)nc4ccc(OC)nc4n23)c(Cl)c1 [Example 18, 9-(2-Chloro-4-methoxyphenyl)-2-methoxy-6,7-dimethylimidazo[1,5-a]pyrido[3,2-e]pyrazine]"
9,< 10 nM,"COc1ccc2nc(C)c3c(C)nc(-c4cc(F)ccc4Cl)n3c2n1 [Example 22, 9-(2-Chloro-5-fluorophenyl)-2-methoxy-6,7-dimethylimidazo[1,5-a]pyrido[3,2-e]pyrazine]"
10,10 to 100 nM,"COc1ccc(-c2nc(C)c3c(C)nc4ccc(OC)nc4n23)cn1 [Example 28, 2-Methoxy-9-(6-methoxypyridin-3-yl)-6,7-dimethylimidazo[1,5-a]pyrido[3,2-e]pyrazine]"
11,10 to 100 nM,"COc1ccc2nc(C)c3c(C)nc(-c4cccnc4OC)n3c2n1 [Example 29, 2-Methoxy-9-(2-methoxypyridin-3-yl)-6,7-dimethylimidazo[1,5-a]pyrido[3,2-e]pyrazine]"
12,10 to 100 nM,"COc1ccc2nc(C)c3c(C)nc(-c4cnccc4OC)n3c2n1 [Example 30, 2-Methoxy-9-(4-methoxypyridin-3-yl)-6,7-dimethylimidazo[1,5-a]pyrido[3,2-e]pyrazine]"

# Second part, the compound before the results:
row,Structure (SMILES),IC50
1,"Cc1nc(CCC(F)(F)F)n2c1c(Cl)nc1ccc(OCC(F)(F)F)nc12 [Example 1, 6-Chloro-7-methyl-2-(2,2,2-trifluoroethoxy)-9-(3,3,3-trifluoropropyl)imidazo[1,5-a]pyrido[3,2-e]pyrazine]",10 to 100 nM
2,"CCCc1nc(C)c2c(Cl)nc3ccc(OCC)nc3n12 [Example 2, 6-Chloro-2-ethoxy-7-methyl-9-propylimidazo[1,5-a]pyrido[3,2-e]pyrazine]",< 10 nM
3,"CCCc1nc(C)c2c(C)nc3ccc(OCC)nc3n12 [Example 3, 2-Ethoxy-6,7-dimethyl-9-propylimidazo[1,5-a]pyrido[3,2-e]pyrazine]",10 to 100 nM
4,"CCOc1ccc2nc(C)c3c(C)nc(-c4ccccc4Cl)n3c2n1 [Example 4, 9-(2-Chlorophenyl)-2-ethoxy-6,7-dimethylimidazo[1,5-a]pyrido[3,2-e]pyrazine]",< 10 nM
5,"COc1ccc2nc(C)c3c(C)nc(-c4cc(Cl)cc(Cl)c4)n3c2n1 [Example 6, 9-(3,5-Dichlorophenyl)-2-methoxy-6,7-dimethylimidazo[1,5-a]pyrido[3,2-e]pyrazine]",10 to 100 nM
6,"COc1ccc2nc(C)c3c(C)nc(-c4ccc(Cl)c(Cl)c4)n3c2n1 [Example 7, 9-(3,4-Dichlorophenyl)-2-methoxy-6,7-dimethylimidazo[1,5-a]pyrido[3,2-e]pyrazine]",10 to 100 nM
7,"COc1ccc2nc(C)c3c(C)nc(-c4cccnc4)n3c2n1 [Example 10, 2-Methoxy-6,7-dimethyl-9-pyridin-3-ylimidazo[1,5-a]pyrido[3,2-e]pyrazine]",10 to 100 nM
8,"COc1ccc2nc(C)c3c(C)nc(-c4ccncc4)n3c2n1 [Example 11, 2-Methoxy-6,7-dimethyl-9-pyridin-4-ylimidazo[1,5-a]pyrido[3,2-e]pyrazine]",10 to 100 nM
9,"COc1ccc2nc(C)c3c(C)nc(-c4cncnc4)n3c2n1 [Example 27, 2-Methoxy-6,7-dimethyl-9-pyrimidin-5-ylimidazo[1,5-a]pyrido[3,2-e]pyrazine]",< 10 nM

# Same assay, conditions: Table 8; read-out: PDE10 pig IC50
row,IC50,Structure (SMILES)
1,< 10 nM,"COc1ccc2nc(C)c3c(C)nc(-c4cc(Cl)ccc4Cl)n3c2n1 [Example 47, 9-(2,5-Dichlorophenyl)-2-methoxy-6,7-dimethylimidazo[1,5-a]pyrido[3,2-e]pyrazine]"
2,< 10 nM,"COc1ccc2nc(C)c3c(C)nc(-c4cccc(Cl)c4)n3c2n1 [Example 48, 9-(3-Chlorophenyl)-2-methoxy-6,7-dimethylimidazo[1,5-a]pyrido[3,2-e]pyrazine]"
3,10 to 100 nM,"COc1ccc2nc(C)c3c(C)nc(-c4ccccc4OC)n3c2n1 [Example 52, 2-Methoxy-9-(2-methoxyphenyl)-6,7-dimethylimidazo[1,5-a]pyrido[3,2-e]pyrazine]"
4,> 100 nM,"COc1ccc2nc(C)c3c(C)nc(-c4ccccc4OC(C)C)n3c2n1 [Example 54, 9-(2-Isopropoxyphenyl)-2-methoxy-6,7-dimethylimidazo[1,5-a]pyrido[3,2-e]pyrazine]"
5,10 to 100 nM,"COc1ccc(-c2nc(C)c3c(C)nc4ccc(OC)nc4n23)cc1 [Example 55, 2-Methoxy-9-(4-methoxyphenyl)-6,7-dimethylimidazo[1,5-a]pyrido[3,2-e]pyrazine]"
6,10 to 100 nM,"COc1ccc2nc(C)c3c(C)nc(-c4ccoc4)n3c2n1 [Example 58, 9-(3-Furyl)-2-methoxy-6,7-dimethylimidazo[1,5-a]pyrido[3,2-e]pyrazine]"
7,10 to 100 nM,"COc1ccc2nc(C)c3c(C)nc(-c4ccc(C)cc4)n3c2n1 [Example 59, 2-Methoxy-6,7-dimethyl-9-(4-methylphenyl)imidazo[1,5-a]pyrido[3,2-e]pyrazine]"
8,10 to 100 nM,"COc1ccc2nc(C)c3c(C)nc(-c4ccco4)n3c2n1 [Example 60, 9-(2-Furyl)-2-methoxy-6,7-dimethylimidazo[1,5-a]pyrido[3,2-e]pyrazine]"

# The remaining lines, values behind:
row,Structure (SMILES),IC50
1,"COc1ccc2nc(Cl)c3c(C)nc(CCC(F)(F)F)n3c2n1 [Example 41, 6-Chloro-2-methoxy-7-methyl-9-(3,3,3-trifluoropropyl)imidazo[1,5-a]pyrido[3,2-e]pyrazine]",10 to 100 nM
2,"COc1ccc2nc(C)c3c(C)nc(CCC(F)(F)F)n3c2n1 [Example 42, 2-Methoxy-6,7-dimethyl-9-(3,3,3-trifluoropropyl)imidazo[1,5-a]pyrido[3,2-e]pyrazine]",10 to 100 nM
3,"COc1ccc2nc(N3CCC3)c3c(C)nc(CCC(F)(F)F)n3c2n1 [Example 43, 6-Azetidin-1-yl-2-methoxy-7-methyl-9-(3,3,3-trifluoropropyl)imidazo[1,5-a]pyrido[3,2-e]pyrazine]",> 100 nM
4,"COc1ccc2nc(N)c3c(C)nc(CCC(F)(F)F)n3c2n1 [Example 44, 2-Methoxy-7-methyl-9-(3,3,3-trifluoropropyl)imidazo[1,5-a]pyrido[3,2-e]pyrazin-6-amine]",10 to 100 nM
5,"COc1ccc2nc(NS(C)(=O)=O)c3c(C)nc(CCC(F)(F)F)n3c2n1 [Example 45, N-[2-Methoxy-7-methyl-9-(3,3,3-trifluoropropyl)imidazo[1,5-a]pyrido[3,2-e]pyrazin-6-yl]methanesulfonamide]",10 to 100 nM
6,"COc1ccc2nc(C)c3c(C)nc(-c4ccsc4)n3c2n1 [Example 56, 2-Methoxy-6,7-dimethyl-9-(3-thienyl)imidazo[1,5-a]pyrido[3,2-e]pyrazine]",10 to 100 nM
